Tested on: NCI-H1703 cells
Experiment: GLS Cell Proliferation Assay (NCI-H1703)
Format: cell-based, human
Conditions: Homo sapiens, 120 h; NCI-H1703 cells, 5 days incubation; geometric mean where repeated; read-out: Assay c) GLS Cell Proliferation Assay
Excerpt: The following assays were used to measure the effects of the compounds of the present invention: a) GLS Enzyme Potency Assay; b) GLS Cell Potency Assay; c) GLS Cell Proliferation Assay; and d) Mouse Xenograft Model. During the description of the assays, generally: • i. The following abbreviations have been used: CO2=Carbon dioxide; DMEM=Dulbecco's Modified Eagle Medium; DMSO=Dimethyl sulphoxide; EDTA=Ethylenediaminetetraacetic acid; EGTA=Ethylene glycol tetraacetic acid; FCS=Foetal calf serum; h=Hour(s); NBS=Non-binding surface; SDS=Sodium dodecyl sulphate; r.t.=room temperature; TRIS=Tris(Hydroxymethyl)aminomethane. • ii. […]
The ability of compounds to inhibit cell growth was measured using a 384 well plate NCI-H1703 cell proliferation assay. NCI-H1703 cells were grown in phenol red free RPMI1640, 10% FCS and 2 mM glutamine and seeded at a density of 750 cells per well in 40 μl of growth medium into clear-bottom 384 well assay plates (Corning product code 3712) and incubated for 24 h at 37° C., 5% CO2. […] DMSO concentration was maintained at 0.3% by back filling with DMSO solution. Plates were incubated for 5 days at 37° C., 5% CO2, Sytox Green and Saponin added to final concentration of 2 μM and 0.25% respectively and incubated for 6 h prior to analysis. Plates were read on an Acumen eX3 (TTP Labtech) using 488 nm excitation and FITC filter set (500-530 nm) for emission. IC50 values were calculated by curve fitting to max inhibition of day zero growth using GeneData software analysis.

Row | SMILES | IC50 [µM]
1 | CO[C@@H](C(=O)Nc1nnc(N[C@@H]2CCN(c3cccnn3)C2)s1)c1ccccc1 [Example 2(b), (2R)-2-Methoxy-2-phenyl-N-[5-[[(3R)-1-pyridazin-3-ylpyrrolidin-3-yl]amino]-1,3,4-thiadiazol-2-yl]acetamide] | 0.179
2 | CO[C@@H](C(=O)Nc1nnc(N[C@@H]2CCN(c3nccnn3)C2)s1)c1ccc(F)cc1 [17(b), (2R)-2-(4-fluorophenyl)-2-methoxy-N-[5-[[(3R)-1-(1,2,4-triazin-3-yl)pyrrolidin-3-yl]amino]-1,3,4-thiadiazol-2-yl]acetamide] | 0.12
3 | CCO[C@@H](C(=O)Nc1nnc(N[C@@H]2CCN(c3cccnn3)C2)s1)c1ccc(OC)cc1 [28(b), (2R)-2-ethoxy-2-(4-methoxyphenyl)-N-[5-[[(3R)-1-pyridazin-3-ylpyrrolidin-3-yl]amino]-1,3,4-thiadiazol-2-yl]acetamide] | 0.151
4 | CO[C@@H](C(=O)Nc1nnc(N[C@@H]2CCN(c3cccnn3)C2)s1)c1ccc(F)cc1 [Example 12(b), (2R)-2-(4-Fluorophenyl)-2-methoxy-N-[5-[[(3R)-1-pyridazin-3-ylpyrrolidin-3-yl]amino]-1,3,4-thiadiazol-2-yl]acetamide] | 0.429
5 | COc1ccc([C@@H](OC)C(=O)Nc2nnc(N[C@@H]3CCN(c4nccnn4)C3)s2)cc1OC [26(b), (2R)-2-(3,4-dimethoxyphenyl)-2-methoxy-N-[5-[[(3R)-1-(1,2,4-triazin-3-yl)pyrrolidin-3-yl]amino]-1,3,4-thiadiazol-2-yl]acetamide] | 0.101
6 | CO[C@H](C(=O)Nc1nnc(N[C@@H]2CCN(c3nccnn3)C2)s1)c1ccc(F)cc1 [17(a), (2S)-2-(4-fluorophenyl)-2-methoxy-N-[5-[[(3R)-1-(1,2,4-triazin-3-yl)pyrrolidin-3-yl]amino]-1,3,4-thiadiazol-2-yl]acetamide] | 3.57
7 | [2H]C([2H])([2H])O[C@@H](C(=O)Nc1nnc(N[C@@H]2CCN(c3cccnn3)C2)s1)c1ccccc1 [18(b), (2R)-2-phenyl-N-[5-[[(3R)-1-pyridazin-3-ylpyrrolidin-3-yl]amino]-1,3,4-thiadiazol-2-yl]-2-(trideuteriomethoxy)acetamide] | 0.073
8 | CO[C@@H](C(=O)Nc1nnc(N[C@@H]2CCN(c3nccnn3)C2)s1)c1ccccc1 [Example 1(b), (2R)-2-Methoxy-2-phenyl-N-[5-[[(3R)-1-(1,2,4-triazin-3-yl)pyrrolidin-3-yl]amino]-1,3,4-thiadiazol-2-yl]acetamide] | 2.24
9 | CO[C@H](C(=O)Nc1nnc(N[C@@H]2CCN(c3nccnn3)C2)s1)c1ccccc1 [Example 1(a), (2S)-2-Methoxy-2-phenyl-N-[5-[[(3R)-1-(1,2,4-triazin-3-yl)pyrrolidin-3-yl]amino]-1,3,4-thiadiazol-2-yl]acetamide] | 0.0535
10 | COc1ccc([C@H](OC)C(=O)Nc2nnc(N[C@@H]3CCN(c4nccnn4)C3)s2)cc1OC [26(a), (2S)-2-(3,4-dimethoxyphenyl)-2-methoxy-N-[5-[[(3R)-1-(1,2,4-triazin-3-yl)pyrrolidin-3-yl]amino]-1,3,4-thiadiazol-2-yl]acetamide] | 2.05
11 | [2H]C([2H])([2H])O[C@@]([2H])(C(=O)Nc1nnc(N[C@@H]2CCN(c3cccnn3)C2)s1)c1ccccc1 [20(b), (2R)-2-deuterio-2-phenyl-N-[5-[[(3R)-1-pyridazin-3-ylpyrrolidin-3-yl]amino]-1,3,4-thiadiazol-2-yl]-2-(trideuteriomethoxy)acetamide] | 0.166
12 | CCO[C@H](C(=O)Nc1nnc(N[C@@H]2CCN(c3cccnn3)C2)s1)c1cccc(OC)c1 [30(a), (2S)-2-ethoxy-2-(3-methoxyphenyl)-N-[5-[[(3R)-1-pyridazin-3-ylpyrrolidin-3-yl]amino]-1,3,4-thiadiazol-2-yl]acetamide] | 0.0716

The next compounds have a lower IC50 than those just listed; values first:

Row | IC50 [µM] | SMILES
13 | 0.00463 | CO[C@H](C(=O)Nc1nnc(N[C@@H]2CCN(c3cncnn3)C2)s1)c1cccc(OC(F)F)c1 [23(a), (2S)-2-[3-(difluoromethoxy)phenyl]-2-methoxy-N-[5-[[(3R)-1-(1,2,4-triazin-6-yl)pyrrolidin-3-yl]amino]-1,3,4-thiadiazol-2-yl]acetamide]
14 | 0.0107 | CO[C@H](C(=O)Nc1nnc(N[C@@H]2CCN(c3cncnn3)C2)s1)c1cccc(OC(F)(F)F)c1 [22(a), (2S)-2-methoxy-N-[5-[[(3R)-1-(1,2,4-triazin-6-yl)pyrrolidin-3-yl]amino]-1,3,4-thiadiazol-2-yl]-2-[3-(trifluoromethoxy)phenyl]acetamide]
15 | 0.00694 | CO[C@@H](C(=O)Nc1nnc(N[C@@H]2CCN(c3cccnn3)C2)s1)c1cccc(OC(F)F)c1 [Example 7(b), (2R)-2-[3-(Difluoromethoxy)phenyl]-2-methoxy-N-[5-[[(3R)-1-pyridazin-3-ylpyrrolidin-3-yl]amino]-1,3,4-thiadiazol-2-yl]acetamide]
16 | 0.0354 | CO[C@@H](C(=O)Nc1nnc(N[C@@H]2CCN(c3cncnn3)C2)s1)c1cccc(OC(F)F)c1 [23(b), (2R)-2-[3-(difluoromethoxy)phenyl]-2-methoxy-N-[5-[[(3R)-1-(1,2,4-triazin-6-yl)pyrrolidin-3-yl]amino]-1,3,4-thiadiazol-2-yl]acetamide]
17 | 0.00247 | CCO[C@@H](C(=O)Nc1nnc(N[C@@H]2CCN(c3cccnn3)C2)s1)c1cccc(OC(F)F)c1 [Example 15(b), (2R)-2-[3-(Difluoromethoxy)phenyl]-2-ethoxy-N-[5-[[(3R)-1-pyridazin-3-ylpyrrolidin-3-yl]amino]-1,3,4-thiadiazol-2-yl]acetamide]
18 | 0.00187 | [2H]C([2H])([2H])O[C@H](C(=O)Nc1nnc(N[C@@H]2CCN(c3cccnn3)C2)s1)c1ccccc1 [18(a), (2S)-2-phenyl-N-[5-[[(3R)-1-pyridazin-3-ylpyrrolidin-3-yl]amino]-1,3,4-thiadiazol-2-yl]-2-(trideuteriomethoxy)acetamide]
19 | 0.00928 | CCO[C@H](C(=O)Nc1nnc(N[C@@H]2CCN(c3cccnn3)C2)s1)c1ccc(OC)cc1 [28(a), (2S)-2-ethoxy-2-(4-methoxyphenyl)-N-[5-[[(3R)-1-pyridazin-3-ylpyrrolidin-3-yl]amino]-1,3,4-thiadiazol-2-yl]acetamide]
20 | 0.000921 | CCO[C@H](C(=O)Nc1nnc(N[C@@H]2CCN(c3cccnn3)C2)s1)c1cccc(OC(F)F)c1 [Example 15(a), (2S)-2-[3-(Difluoromethoxy)phenyl]-2-ethoxy-N-[5-[[(3R)-1-pyridazin-3-ylpyrrolidin-3-yl]amino]-1,3,4-thiadiazol-2-yl]acetamide]
21 | 0.00638 | CCO[C@@H](C(=O)Nc1nnc(N[C@@H]2CCN(c3cccnn3)C2)s1)c1cccc(OC(F)(F)F)c1 [Example 16(b), (2R)-2-Ethoxy-N-[5-[[(3R)-1-pyridazin-3-ylpyrrolidin-3-yl]amino]-1,3,4-thiadiazol-2-yl]-2-[3-(trifluoromethoxy)phenyl]acetamide]
22 | 0.00194 | [2H]C([2H])([2H])O[C@]([2H])(C(=O)Nc1nnc(N[C@@H]2CCN(c3cccnn3)C2)s1)c1ccccc1 [20(a), (2S)-2-deuterio-2-phenyl-N-[5-[[(3R)-1-pyridazin-3-ylpyrrolidin-3-yl]amino]-1,3,4-thiadiazol-2-yl]-2-(trideuteriomethoxy)acetamide]
23 | 0.0367 | CO[C@@H](C(=O)Nc1nnc(N[C@@H]2CCN(c3nccnn3)C2)s1)c1cccc(OC(F)(F)F)c1 [Example 8(b), (2R)-2-Methoxy-N-[5-[[(3R)-1-(1,2,4-triazin-3-yl)pyrrolidin-3-yl]amino]-1,3,4-thiadiazol-2-yl]-2-[3-(trifluoromethoxy)phenyl]acetamide]
24 | 0.00504 | CO[C@H](C(=O)Nc1nnc(N[C@@H]2CCN(c3nccnn3)C2)s1)c1cccc(OC(F)(F)F)c1 [Example 8(a), (2S)-2-Methoxy-N-[5-[[(3R)-1-(1,2,4-triazin-3-yl)pyrrolidin-3-yl]amino]-1,3,4-thiadiazol-2-yl]-2-[3-(trifluoromethoxy)phenyl]acetamide]
25 | 0.0135 | CO[C@H](C(=O)Nc1nnc(N[C@@H]2CCN(c3cccnn3)C2)s1)c1ccc(F)cc1 [Example 12(a), (2S)-2-(4-Fluorophenyl)-2-methoxy-N-[5-[[(3R)-1-pyridazin-3-ylpyrrolidin-3-yl]amino]-1,3,4-thiadiazol-2-yl]acetamide]
26 | 0.00224 | CO[C@H](C(=O)Nc1nnc(N[C@@H]2CCN(c3cccnn3)C2)s1)c1cccc(OC(F)F)c1 [Example 7(a), (2S)-2-[3-(Difluoromethoxy)phenyl]-2-methoxy-N-[5-[[(3R)-1-pyridazin-3-ylpyrrolidin-3-yl]amino]-1,3,4-thiadiazol-2-yl]acetamide]
27 | 0.00132 | CCO[C@H](C(=O)Nc1nnc(N[C@@H]2CCN(c3cccnn3)C2)s1)c1cccc(OC(F)(F)F)c1 [Example 16(a), (2S)-2-Ethoxy-N-[5-[[(3R)-1-pyridazin-3-ylpyrrolidin-3-yl]amino]-1,3,4-thiadiazol-2-yl]-2-[3-(trifluoromethoxy)phenyl]acetamide]
28 | 0.00201 | CCO[C@@H](C(=O)Nc1nnc(N[C@@H]2CCN(c3cccnn3)C2)s1)c1cccc(OC)c1 [30(b), (2R)-2-ethoxy-2-(3-methoxyphenyl)-N-[5-[[(3R)-1-pyridazin-3-ylpyrrolidin-3-yl]amino]-1,3,4-thiadiazol-2-yl]acetamide]

Reference: patent US10040788B2, “1,3,4-thiadiazole compounds and their use in treating cancer” (AstraZeneca AB, priority 2014, dated 2018)
